Some test systems named below: A549 NSCLC; ACHN renal; COLO 205 colon; M14 melanoma; MOLT-4 leukemia; NCI-H23 lung; SN12C renal; SW-620 colon; U251 CNS; UACC-257 melanoma.
Assay in all cases: DTP human tumour cell line panel, 48 h

The term TGI denotes the concentration at which net growth stops. By GI50 is commonly meant the concentration giving 50% growth inhibition.

Each structure is given as a SMILES string.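 1) Cells in 96-well plates. 2) Compound, 48 h, 5 concentrations. 3) Linear interpolation between surrounding doses. 4) Unreached endpoint = highest concentration. Abbreviation: GI50, concentration required for 50% inhibition of growth. Definition used: TGI = concentration required for complete inhibition of growth.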

On to `CCNC(=O)/C(=C/c1ccc(OC)cc1)c1cc(OC)c(OC)c(OC)c1`, for which the TGI with A549 NSCLC is above 100 µM; with ACHN renal, above 100 µM; in the assay with COLO 205 colon, 24.8 µM; in the assay with M14 melanoma, above 100 µM; in the assay with MOLT-4 leukemia, above 100 µM; in the assay on NCI-H23 lung, above 85.3 µM. Also, the TGI was above 100 µM with SN12C renal, above 100 µM with SW-620 colon, 70 µM with U251 CNS and above 100 µM in the assay on UACC-257 melanoma.
`CCN(CC)CCCCCCNc1cccc2cc(Br)cnc12`: the GI50 with A549 NSCLC is 8.07 µM; in the assay on ACHN renal, 4.98 µM; in the assay on COLO 205 colon it was 1.87 µM; in the assay on M14 melanoma it was 2.05 µM; in the assay on MOLT-4 leukemia it was 3.06 µM; in the assay with NCI-H23 lung, 5.89 µM. Also, the GI50 in the assay with SN12C renal was 5.92 µM; in the assay with SW-620 colon it was 3.41 µM; in the assay on U251 CNS, 5.36 µM; with UACC-257 melanoma, 3.28 µM. The total growth inhibition concentration (TGI) was determined as 22.6 µM with A549 NSCLC; 17.1 µM in the assay with ACHN renal; 3.88 µM in the assay with COLO 205 colon; 3.93 µM in the assay on M14 melanoma; 12.1 µM in the assay on MOLT-4 leukemia; 20.7 µM in the assay on NCI-H23 lung. For the same compound, the total growth inhibition concentration (TGI) in the assay on SN12C renal came to 21 µM; with SW-620 colon it was 14.7 µM; in the assay on U251 CNS, 17.7 µM; in the assay on UACC-257 melanoma, 9.36 µM.
With `Cc1cccc(C2=C/C(=C(\SS/C(C(=O)c3ccc(OCC(=O)O)c(Cl)c3Cl)=C3\C=C(c4cccc(C)c4)SS3)C(=O)c3ccc(OCC(=O)O)c(Cl)c3Cl)SS2)c1`, the concentration for total growth inhibition (TGI) is above 100 µM with A549 NSCLC; 37.7 µM in the assay on ACHN renal; 38.3 µM with COLO 205 colon; 51.3 µM with M14 melanoma; 40.2 µM in the assay with MOLT-4 leukemia; 38.7 µM with NCI-H23 lung. Moreover, the TGI is 65.1 µM in the assay with SN12C renal, 49.8 µM with SW-620 colon, 14.3 µM in the assay on U251 CNS and above 77.3 µM in the assay on UACC-257 melanoma.
In the case of `O=C(N/C(=C\c1ccc([N+](=O)[O-])cc1)c1nc2ccccc2[nH]1)c1ccccc1`, the TGI in the assay on A549 NSCLC, in the assay with ACHN renal, with COLO 205 colon, in the assay with M14 melanoma, in the assay on MOLT-4 leukemia and with NCI-H23 lung was above 100 µM in each case. Also, the concentration for total growth inhibition (TGI) in the assay with SN12C renal, in the assay on SW-620 colon, in the assay with U251 CNS and in the assay on UACC-257 melanoma was above 100 µM throughout.
Regarding `O=C(NCc1ccc(Cn2c(=O)sn(-c3ccccc3)c2=O)cc1)OCc1ccc2cccc(O)c2n1`, the GI50 is 1.51 µM in the assay with A549 NSCLC; 0.393 µM in the assay on ACHN renal; 0.608 µM with COLO 205 colon; 0.647 µM in the assay on M14 melanoma; 0.785 µM with MOLT-4 leukemia; 1.46 µM in the assay with NCI-H23 lung. In addition, the GI50 is 0.907 µM in the assay with SN12C renal, 0.301 µM in the assay with SW-620 colon, 1.47 µM in the assay with U251 CNS and 1.37 µM in the assay on UACC-257 melanoma. For the same compound, the concentration for total growth inhibition (TGI) was 3.87 µM in the assay with A549 NSCLC; 1.47 µM in the assay on ACHN renal; 2.29 µM in the assay on COLO 205 colon; 2.03 µM with M14 melanoma; above 24.3 µM in the assay with MOLT-4 leukemia; 3.06 µM in the assay on NCI-H23 lung. Moreover, the TGI in the assay with SN12C renal came out at 2.24 µM; in the assay on SW-620 colon, 0.951 µM; with U251 CNS, 2.92 µM; in the assay on UACC-257 melanoma, 3.01 µM.
Regarding `O=C1Nc2ccccc2/C1=C1\CCc2cc(O)ccc21`, the GI50 with A549 NSCLC is 9.45 µM; with ACHN renal, 10.6 µM; in the assay with COLO 205 colon it was 12.4 µM; with M14 melanoma, 7.18 µM; in the assay with MOLT-4 leukemia it was 12.2 µM; in the assay on NCI-H23 lung, 7.07 µM. For the same compound, the GI50 is 7.84 µM in the assay on SN12C renal, 8.05 µM in the assay with SW-620 colon, 8.84 µM in the assay on U251 CNS and 9.47 µM in the assay with UACC-257 melanoma. The total growth inhibition concentration (TGI) with A549 NSCLC, in the assay with ACHN renal, in the assay with COLO 205 colon, in the assay with M14 melanoma, in the assay with MOLT-4 leukemia and in the assay on NCI-H23 lung was above 25 µM in each case. Further, the TGI in the assay with SN12C renal, with SW-620 colon, in the assay on U251 CNS and in the assay with UACC-257 melanoma was above 25 µM in each case.
For `COC(=O)C1C(O)C(C(=O)OC)C(C)N(C)C1C` (stereo not given), the TGI in the assay with A549 NSCLC, in the assay on ACHN renal, in the assay with COLO 205 colon, in the assay on M14 melanoma, in the assay on MOLT-4 leukemia and with NCI-H23 lung was above 100 µM in each case. The TGI in the assay with SN12C renal, in the assay on SW-620 colon, in the assay on U251 CNS and in the assay on UACC-257 melanoma was above 100 µM in each case.
For `Cc1ccc(C)c(N2C/C(=N\NC(=O)CC#N)C(c3nc4ccccc4s3)C(=O)C2=O)c1` (stereo not given), the TGI in the assay with A549 NSCLC, in the assay on ACHN renal, in the assay with COLO 205 colon, with M14 melanoma, in the assay on MOLT-4 leukemia and in the assay with NCI-H23 lung was above 100 µM throughout. Besides, the TGI in the assay on SN12C renal, in the assay with SW-620 colon, in the assay with U251 CNS and in the assay on UACC-257 melanoma was above 100 µM in each case.
For `COc1ccc(-c2cnnn2-c2nonc2-n2cccc2)cc1`, the GI50 with A549 NSCLC is 0.45 µM; in the assay on ACHN renal it was 1.05 µM; in the assay on COLO 205 colon, 0.235 µM; in the assay with M14 melanoma, 0.209 µM; in the assay with MOLT-4 leukemia, 0.498 µM; in the assay with NCI-H23 lung, 0.246 µM. Besides, the GI50 with SN12C renal is 0.595 µM; with SW-620 colon, 0.149 µM; in the assay on U251 CNS it was 0.344 µM; in the assay with UACC-257 melanoma, 0.373 µM. Further, the TGI was above 44.8 µM in the assay on A549 NSCLC; above 94 µM in the assay on ACHN renal; 0.787 µM in the assay with COLO 205 colon; 6.62 µM with M14 melanoma; 12.6 µM in the assay on MOLT-4 leukemia; 5.82 µM in the assay with NCI-H23 lung. For the same compound, the TGI with SN12C renal was above 100 µM; with SW-620 colon it was above 100 µM; in the assay on U251 CNS it was 8.41 µM; in the assay with UACC-257 melanoma it was 35.1 µM.
Turning to `O=c1[nH]cnc(NC2C=C(CO)C(O)C2O)c1[N+](=O)[O-]` (stereo not given), the TGI in the assay with A549 NSCLC, in the assay with ACHN renal, in the assay with COLO 205 colon, in the assay on M14 melanoma, with MOLT-4 leukemia and with NCI-H23 lung was above 100 µM in each case. The TGI in the assay with SN12C renal was above 100 µM; with SW-620 colon it was above 62 µM; in the assay with U251 CNS it was above 100 µM; in the assay with UACC-257 melanoma, above 100 µM.

These data come from PubChem BioAssay (NCI).
